The nature of data set [1]: Comparison of thermostability of the crystals (120° C., open vial, decomposed products by HPLC). Format: physicochemical. Conditions: area % to residual monatin. The procedure:
Comparison of Thermostability of the Crystals.
Each 50 mg of the crystals and the amorphous solid prepared by the above-mentioned methods were placed in a 4-ml vial and preserved (kept) at the temperature of 120° C. At that time, the vial was made in an open state. Each 2 mg of the sample were taken out after retention time of 3 hours, 7 hours and 24 hours and the rate (ratio) of decomposed products were determined by means of HPLC (high-performance liquid chromatography).

For data set [2] the following is noted: hydrochlorides, reported by K. Nakamura et al., cited from earlier work.
The subject of the next data set is panelists. Briefly: Intensity of sweet taste, tasted against a 5% aqueous sucrose standard solution. Format: in vivo. As to conditions: for Sweetness Intensity / Degree of sweet taste / intensity of sweet taste: as compared with a 5% aqueous solution of sucrose; for Degree of sweet taste / intensity of sweet taste: salt crystals. The protocol:
Intensity of sweet taste (sweetening potency; degree of sweet taste) of the crystals of each stereoisomer obtained can be determined by comparing with a 5% aqueous solution of sucrose, but a method for the determination of intensity of sweet taste is not limited thereto. “Sweet taste” intensity of each stereoisomer obtained was measured by the following method. A 0.05% aqueous solution of each stereoisomer was prepared and diluted to an appropriate extent to prepare an aqueous solution of a sample of a predetermined concentration. Separately, a 5% aqueous solution of sucrose was prepared and used as a standard solution. The diluted aqueous solution of the sample and the standard aqueous sucrose solution were tasted one after another and the sweetness rate was determined from the sample concentration where the intensities of sweetness were noted to be same. Seven panelists performed the evaluation.

Where [3] appears, read: samples crystallized and purified as a sodium salt.
Where [4] appears, read: samples prepared by HPLC, purified by ion-exchange resin and freeze-dried as an ammonium salt.

This is an account of results in patent publication US7795296B2, “Crystals of non-natural-type stereoisomer salt of monatin and use thereof” (Ajinomoto Co., Inc., priority 2001, dated 2010).

Where two headings read alike, the source gives them in different places.

`N[C@H](CC(O)(Cc1c[nH]c2ccccc12)C(=O)O)C(=O)O` (some centres unmarked) [Free substance crystals]: the figures for the “Rate of Decomposed Product A (%)” value in data set [1] (retention time 3 hours), in data set [1] (retention time 7 hours) and in data set [1] (retention time 24 hours) were 2.0%, 3.8% and 5.3%, respectively. The “Rate of Decomposed Product B (%)” value is recorded as 2.1% in data set [1] (retention time 3 hours), 4.3% in data set [1] (retention time 7 hours) and 11.7% in data set [1] (retention time 24 hours).

On to `Cl.N[C@@H](C[C@@](O)(Cc1c[nH]c2ccccc12)C(=O)O)C(=O)O` [synthetic (2S,4S) monatin substance], for which the “Sweet taste, in words” value in data set [2] is given as “sweet potency equivalent to that of the a natural specimen of monatin”.

Consider `N[C@H](CC(O)(Cc1c[nH]c2ccccc12)C(=O)O)C(=O)O` (stereo partly drawn) [(2R, 4S)], for which the “Sweetness Intensity” value with panelists (setting [3]) is reported as “ca. 1300”; with panelists (setting [4]), “ca. 800”.

With `NC(CC(O)(Cc1c[nH]c2ccccc12)C(=O)O)C(=O)[O-].[Na+]` (centres unmarked) [Example 11], in the data set with panelists, the “Degree of sweet taste / intensity of sweet taste” value was “about 1300 fold”.

As to `Cl.N[C@@H](C[C@](O)(Cc1c[nH]c2ccccc12)C(=O)O)C(=O)O`, the results for the “Sweet taste, in words” value in data set [2] and in data set [2] (listed as synthetic (2S,4R) monatin substance) were “almost no sweet taste” and “slightly sweet taste”, respectively.

On to `N[C@@H](C[C@@](O)(Cc1c[nH]c2ccccc12)C(=O)O)C(=O)O` [(2S, 4S), (2S,4S)-2-amino-4-carboxy-4-hydroxy-5-(3-indolyl)-pentanoic acid], for which the “Intensity of the sweet taste” value with panelists (Example 1 ammonium salts, amorphous solid, 5% aqueous sucrose standard, seven panelists) is “about 300 fold”. Also, the figures for the “Sweetness Intensity” value in the data set on panelists (setting [3]) and in the data set with panelists (setting [4]) were “ca. 50” and “ca. 300”, respectively. For the same molecule, the “Intensity of sweet taste, comparison in words” value in the data set with panelists (comparison among the four stereoisomers and with reported data) was “far lower than the data which were reported already”. Also, the “Degree of sweet taste / intensity of sweet taste” value in the data set on panelists is on record as “about 50 fold”.

Turning to `N.N[C@H](C[C@](O)(Cc1c[nH]c2ccccc12)C(=O)O)C(=O)O` [Ammonium salt crystals], the “Rate of Decomposed Product A (%)” value in data set [1] (retention time 3 hours) was 1.9%; in data set [1] (retention time 7 hours), 3.8%; in data set [1] (retention time 24 hours) it was 11.8%. The entries for the “Rate of Decomposed Product B (%)” value in data set [1] (retention time 3 hours), in data set [1] (retention time 7 hours) and in data set [1] (retention time 24 hours) were 1.2%, 2.3% and 7.6%, respectively.
